How the values were obtained:
[1] = test system: substance P; conditions: comparison with capsaicin; prevents pain sensation without compromising touch or motor coordination; cited from earlier work
[2] = Use of capsaicin to induce salivation: application to oral mucosa of a human subject, saliva collected for 15 minutes; type: in vivo
Procedure: A subject was used as a test subject to determine whether application of capsaicin to oral mucosa causes salivation. Approximately 0.25 inches of capsaicin (0.025% generic capsaicin cream) was applied to the oral mucosa. […] Saliva was collected for a period of about 15 minutes in a paper cup. The amount was compared to the amount of saliva collected for a period of 15 minutes before applying capsaicin to the oral mucosa. […] The increased salivation continued for approximately an hour. In preferred embodiments of the present invention, capsaicin or capsaicinoid is combined with one or more of the following: antihistamines such as Benadryl®, or other antihistamines, antibacterials, antifungals, antivirals, and/or antipruritis medications, such as those described above.

[3] = cited from earlier work

COc1cc(CNC(=O)CCCC/C=C\C(C)C)ccc1O [Civamide, cis-capsaicin]
depletion of substance P compared with capsaicin [1]: more effective than capsaicin in depleting substance P

COc1cc(CNC(=O)CCCC/C=C/C(C)C)ccc1O [capsaicin]
duration of increased salivation ([2]; one subject, 0.025% capsaicin cream on oral mucosa): approximately an hour | increase in salivation relative to baseline level of salivation ([2]; one subject, about 0.25 inches of 0.025% capsaicin cream on oral mucosa, saliva collected about 15 minutes vs 15 minutes before application, estimated): about two to three times the baseline level | sensation reported by the subject after application ([2]; within a few minutes of application, increased in intensity for about twenty minutes): warm feeling in the mouth

CC[C@@H]1C(=O)OC[C@@H]1Cc1cncn1C [pilocarpine]
stimulation of salivary glands ([3]; patients experiencing xerostomia due to radiotherapy): effective in stimulating salivary glands | side effects of treatment ([3]; pilocarpine treatment): often associated with side effects involving heart, blood pressure, digestion and profuse sweating

From patent publication US20030082249A1, “Compositions containing capsaicin and its derivatives, and their use in treating mucositis” (Ovation Pharmaceuticals, priority 2001, published 2003)
